Data as given in PMC9837764 (Nature Communications, 2023).
pEC50: −log10 of the molar value. “And” between values parts separate entries of the source, which are not always exact repeats. Identical values can stand only once. Like-named read-outs stand apart in the source and are kept apart here.

Legend:
SARS-CoV-2 gamma VoC [1] = tested on: SARS-CoV-2 gamma VoC; design: species or system K18-hACE2 mice (Mus musculus); details: mouse, in vivo
SARS-CoV-2 gamma VoC [2] = tested on: SARS-CoV-2 gamma VoC; design: species or system K18-hACE2 mice (Mus musculus); details: mouse, in vivo; remark: listed apart in the source
SARS-CoV-2 [3] = test: Genomic and subgenomic viral RNA in infected Calu-3 cells (RT-PCR); assay type: cell-based; details: Calu-3, 10 µM, 48 h
SARS-CoV-2 gamma VoC [4] = tested on: SARS-CoV-2 gamma VoC; design: species or system K18-hACE2 mice (Mus musculus); details: mouse, in vivo; remark: listed apart in the source
SARS-CoV-2 [5] = test: Combination of RdRp inhibitors with SARS-CoV-2 nsp14 inhibitors in infected Calu-3 cells, synergy; assay type: cell-based; details: for Response (Fig3C source data for synergy analysis): DTG 0 nM
SARS-CoV-2 gamma VoC [6] = tested on: SARS-CoV-2 gamma VoC; design: species or system K18-hACE2 mice (Mus musculus); details: mouse, in vivo, 140 mg/kg/day
[7] = MB-905 and metabolites in mouse lungs after single oral treatment; assay type: in vivo, mice; details: individual animals
Procedure: Fig. 5 Pharmacokinetic and pharmacodynamics in mice. […] Lung metabolites were detected consistently in terms of peak area and duration (c). Transgenic mice expressing the hACE2 receptor to SARS-CoV-2 entry at the age of 10–12 weeks were infected with 10^5 PFU intranasally and treated orally beginning 12–18 h after infection with 140 mg/kg/day. […] (e) are presented.
(§1) Pharmacokinetics in rodent plasma was performed in CD1 mice (Mus musculus, 20–30 g) and Sprague‒Dawley rats (Rattus norvegicus, 250–300 g) of both sexes. […] After oral or intravenous administration, blood samples were collected at times of 0.25, 0.5, 1, 2, 4, 8, and 24 and 0.083, 0.25, 0.5, 1, 2, and 4 h. Parameters such as area under the curve (AUC), time taken to reach the maximum concentration (Tmax), time taken for Cmax to drop in half (T 1/2), volume of distribution, clearance, elimination constant and bioavailability (F) were evaluated. Bioavailability was calculated using the following equation: F (%) = [(intravenous dose x oral AUC)/(oral dose × intravenous AUC)] × 100. […] Animals were treated orally with MB-905 as previously described. Animals were sacrificed at different time points after treatments, and lungs were immediately removed, placed in liquid nitrogen at −80 °C and processed for further analysis. For the analysis of plasma and lung supernatant, UPLC–MS/MS equipment was used.

SARS-CoV-2 Gamma VoC [8] = tested on: SARS-CoV-2 Gamma VoC; design: species or system Syrian hamsters (Mesocricetus auratus); details: hamster, in vivo
[9] = Pharmacokinetics in mouse plasma; assay type: in vivo, CD1 mice (Mus musculus); design: MB-905 level (Fig5A): unit not given here; details: for MB-905 level (Fig5A): individual animals; for k el: read-out: Ke (converted)
[10] = tested on: Salmonella typhimurium TA 102; test: Ames test, strain TA 102
SARS-CoV-2 RNA = test: RNA immunoprecipitation with anti-kinetin antibody, infected Calu-3 cells; assay type: cell-based
SARS-CoV-2 Gamma VoC [11] = details: hamster, in vivo, 140 mg/kg
SARS-CoV-2 gamma VoC [12] = tested on: SARS-CoV-2 gamma VoC; design: species or system K18-hACE2 mice (Mus musculus); details: mouse, in vivo; remark: listed apart in the source
[13] = MB-905 and metabolites in rat lung; assay type: in vivo, Sprague-Dawley rats (Rattus norvegicus); details: 30 mg/kg oral
Procedure: Noncompartmental data analysis was performed using Phoenix WinNonlin®.
as §1
Supplementary Fig. 6. Pharmacokinetic and putative metabolites of MB-905 in rats. a, […]
plasma (n = 6); b, Single oral dose (30 mg/kg bodyweight) pharmacokinetics properties of MB- […]
mg/kg, p.o.) (n=5) d, Single oral dose (30 mg/kg bodyweight) pharmacokinetics properties of […]
(30 mg/kg, p.o.) (n=3) f, Single oral dose (30 mg/kg bodyweight) pharmacokinetics properties of […]

[14] = infected Calu-3, compound alone at 10 uM
[15] = both sexes, CD1, mouse, plasma, iv, mice, 3 mg/kg (i.v.)
[16] = both sexes, CD1, mouse, plasma, po, mice, 30 mg/kg (p.o.)
[17] = both sexes, CD1, mouse, plasma, po, mice, 550 mg/kg (p.o.)
[18] = MB-905-treated infected Calu-3 cells

## c1coc(CNc2ncnc3[nH]cnc23)c1 [MB-905, N6-furfurylaminopurine]
SARS-CoV-2 gamma VoC [1]
  SARS-CoV-2-induced inflammation in the BAL fluid: attenuated
SARS-CoV-2 gamma VoC [2]
  Fig6G lung histological score: 1 and 2
SARS-CoV-2 [3]
  Genomic viral RNA (Fig2B source data, replicates): 0.2 and 0.15 and 0.1
  Subgenomic viral RNA (Fig2B source data, replicates): 0.6 and 0.5 and 0.7
SARS-CoV-2 gamma VoC [4]
  survival event code per animal (Fig5D): 1 (4×) and 0 (2×)
SARS-CoV-2 gamma VoC [4]; 140 mg/kg/day
  Body weight: recovered their body weight
  Survival: survived after two weeks
SARS-CoV-2 [5]; MB-905 10 nM
  Response (Fig3C source data for synergy analysis): 8
SARS-CoV-2 [5]; MB-905 100 nM
  Response (Fig3C source data for synergy analysis): 17
SARS-CoV-2 [5]; MB-905 1000 nM
  Response (Fig3C source data for synergy analysis): 44
SARS-CoV-2 [5]; MB-905 10000 nM
  Response (Fig3C source data for synergy analysis): 89
SARS-CoV-2 [5]; Severe acute respiratory syndrome coronavirus 2, Calu-3, read-out: EC50 mean
  pEC50: 6.52
SARS-CoV-2 [5]; Severe acute respiratory syndrome coronavirus 2, Calu-3, read-out: EC90 mean
  EC90: 8 µM
SARS-CoV-2 [5]; [14]
  Virus productive titers (Fig3A source data, replicates): 60000 and 46000 and 56000
  Virus productive titers (Fig3B source data, replicates): 60000 and 46000 and 52000
SARS-CoV-2 gamma VoC [6]
  Infectious titers in lungs: decreased significantly
  Virus RNA levels from lung extracts: did not alter
[7]; 140 mg/kg, 0.25 h
  MB-905 level (Fig5B): 1864 and 2462 and 2409
[7]; 140 mg/kg, 1 h
  MB-905 level (Fig5B): 2448 and 1951
[7]; 140 mg/kg, 3 h
  MB-905 level (Fig5B): 1209 and 771 and 2655
[7]; 140 mg/kg, 8 h
  MB-905 level (Fig5B): 1105 and 110 and 400
[7]; 140 mg/kg, 12 h
  MB-905 level (Fig5B): 0
[7]; 500 mg/kg, 0.25 h
  MB-905 level (Fig5B): 5246 and 5640 and 6065
[7]; 500 mg/kg, 1 h
  MB-905 level (Fig5B): 4146 and 4252 and 4427
[7]; 500 mg/kg, 3 h
  MB-905 level (Fig5B): 3576 and 2579 and 2846
[7]; 500 mg/kg, 8 h
  MB-905 level (Fig5B): 3077 and 895 and 2729
[7]; 500 mg/kg, 12 h
  MB-905 level (Fig5B): 575 and 53 and 0
SARS-CoV-2 Gamma VoC [8]
  Viral RNA levels: did not affect viral RNA levels
SARS-CoV-2 Gamma VoC [8]; 140 mg/kg
  Infectious virus titers in the lungs: reduced infectious virus titers in the lungs
[9]; 140 mg/kg, 0.25 h
  MB-905 level (Fig5A): 544 and 555 and 638
[9]; 140 mg/kg, 1 h
  MB-905 level (Fig5A): 356 and 299 and 551
[9]; 140 mg/kg, 3 h
  MB-905 level (Fig5A): 447 and 177 and 154
[9]; 140 mg/kg, 8 h
  MB-905 level (Fig5A): 105 and 316 and 50
[9]; 140 mg/kg, 12 h
  MB-905 level (Fig5A): 0
[9]; 500 mg/kg, 0.25 h
  MB-905 level (Fig5A): 1228 and 1306 and 1348
[9]; 500 mg/kg, 1 h
  MB-905 level (Fig5A): 1348 and 946 and 1312
[9]; 500 mg/kg, 3 h
  MB-905 level (Fig5A): 894 and 544 and 652
[9]; 500 mg/kg, 8 h
  MB-905 level (Fig5A): 833 and 340 and 437
[9]; 500 mg/kg, 12 h
  MB-905 level (Fig5A): 103 and 13 and 0
[9]; [15]
  AUC: 66.4 ng·h/mL
  AUC(0-t): 55.5 ng·h/mL
  Cmax: 155 ng/mL
  Tmax: 4.98 min
  clearance: 918 mL/min/kg
  half-life: 13.2 min
  k el: 0.000858 s⁻¹
[9]; both sexes, CD1, mouse, plasma, iv, mice, 3 mg/kg (i.v.), read-out: Vz
  Vd: 19 L/kg
[9]; both sexes, CD1, mouse, plasma, po, 30 mg/kg, mice, 30 mg/kg (p.o.), read-out: F
  bioavailability: 53.5%
[9]; both sexes, CD1, mouse, plasma, po, 30 mg/kg, mice, read-out: Oral bioavailability
  bioavailability: > 50%
[9]; both sexes, CD1, mouse, plasma, po, 550 mg/kg, mice, 550 mg/kg (p.o.), read-out: F
  bioavailability: 36.1%
[9]; [16]
  AUC: 356 ng·h/mL
  AUC(0-t): 356 ng·h/mL
  Cmax: 570 ng/mL
  Tmax: 4.98 min
  half-life: 66.6 min
  k el: 0.000172 s⁻¹
[9]; [17]
  AUC: 4390 ng·h/mL
  AUC(0-t): 4390 ng·h/mL
  Cmax: 1050 ng/mL
  Tmax: 30 min
  half-life: 163 min
  k el: 6.94e-05 s⁻¹
[9]; mice, 30 mg/kg (p.o.)
  CL: 1060.15 mL/min/kg
  Vz: 102.21 L/kg
[9]; mice, 550 mg/kg (p.o.)
  CL: 1843.18 mL/min/kg
  Vz: 434.2 L/kg
[10]; 8 µg/mL
  Mutagenicity TA 102 +S9: -
  Mutagenicity TA 102 -S9: -
[10]; 40 µg/mL
  Mutagenicity TA 102 +S9: -
  Mutagenicity TA 102 -S9: -
[10]; 200 µg/mL
  Mutagenicity TA 102 +S9: -
  Mutagenicity TA 102 -S9: -
[10]; 1,000 µg/mL
  Mutagenicity TA 102 +S9: -
  Mutagenicity TA 102 -S9: -
[10]; 5,000 µg/mL
  Mutagenicity TA 102 +S9: -
  Mutagenicity TA 102 -S9: -
SARS-CoV-2 RNA; [18]
  Viral RNA immunoprecipitated with anti-kinetin antibody (Ab) (Fig2C source data): 149.09 and 145.01 and 123.64 and 134.36
  Viral RNA immunoprecipitated with isotype control (Iso) (Fig2C source data): 2.52 and 2.29 and 2.30 and 2.50
SARS-CoV-2 RNA; infected Calu-3 cells
  Enrichment of viral RNA in anti-N6-furfuryladenine IP compared to isotype control and nil-treated cells: more than 10 fold
SARS-CoV-2 Gamma VoC [11]
  Tolerability (body weight): tolerated
SARS-CoV-2 gamma VoC [12]
  LDH levels in bronchoalveolar lavage (BAL): decreased
[13]; 1 h
  MB-905 in rat lung (Fig4C source data, per animal): 231.05 and 263.97 and 218.08
[13]; 2 h
  MB-905 in rat lung (Fig4C source data, per animal): 360.89 and 345.91 and 313.18
[13]; 4 h
  MB-905 in rat lung (Fig4C source data, per animal): 100.91 and 155.47 and 69.56
[13]; 8 h
  MB-905 in rat lung (Fig4C source data, per animal): 7.77 and 46.28 and 12.38
[13]; 12 h
  MB-905 in rat lung (Fig4C source data, per animal): 0
